Results taken from patent US10953012B2, “Heterocyclic compounds for the inhibition of pask” (BioEnergenix LLC, priority 2011, dated 2021).

Columns and labels:
hPASK (full length) = hPASK (full length) (Homo sapiens (Human), UniProt Q96RG2); experiment: PAS Kinase Luminescence Assay (Kinase-Glo), full length; assay type: biochemical
Experimental: (§1) PAS Kinase Luminescence Assay
(§2) One assay for purified hPASK activity utilizes the Kinase-Glo Luminescent Kinase Assay (Promega), which quantifies the amount of ATP remaining in solution following kinase reaction. The assay is carried out in a 96-well plate format and is performed by adding a volume of Kinase-Glo Reagent (Promega, catalog #V3771) equal to the volume of solution in the well of a completed kinase reaction. Kinase-Glo reagent contains Luciferase and its substrate. After addition to a kinase reaction it allows to measure luminescence. The amount of ATP left in solution at the time of Kinase-Glo Plus addition is directly proportional to the luminescence that is measured in each well, and inversely correlated with kinase activity.
(§3) Purified hPASK from insect cells (0.02 μg) is added to a 50 μL reaction mix containing 40 mM HEPES (pH 7.0), 100 mM KCl, 5 mM MgCl2, 1 mM DTT and 1 μg of MBP protein. Inhibitory compounds are then added and the mixture is incubated for 10 min at 25° C. before adding 5 μL of ATP (at desired concentration). The reaction is allowed to proceed at 25° C. for 1 hour before adding 50 μL of Kinase-Glo reagent. The luminescence is measured as soon as 10 minutes after Kinase-Glo reagent is added.
(§4) Results are shown below in Table 1, where NT means not tested.

hPASK (kinase domain) = hPASK (kinase domain) (Homo sapiens (Human), UniProt Q96RG2); experiment: PAS Kinase Luminescence Assay (Kinase-Glo), kinase domain; assay type: biochemical
hPASK (kinase domain), sequence (Q96RG2 999-1251): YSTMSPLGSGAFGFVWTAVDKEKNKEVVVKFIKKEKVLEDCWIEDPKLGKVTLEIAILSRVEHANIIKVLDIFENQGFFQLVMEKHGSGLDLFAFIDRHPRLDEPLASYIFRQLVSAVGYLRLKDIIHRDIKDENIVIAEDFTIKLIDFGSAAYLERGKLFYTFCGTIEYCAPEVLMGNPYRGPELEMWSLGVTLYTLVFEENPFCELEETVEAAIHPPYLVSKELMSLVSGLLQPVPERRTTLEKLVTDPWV
Experimental: as §1, §2, §3, §4

CK2a2 = CK2a2 (Homo sapiens (Human), UniProt P19784); experiment: Biochemical Assay for CK2 Activity; settings: 33P-ATP radiochemical assay; read-out: IC50 CK2 a2
CK2a2, sequence (P19784 whole entry): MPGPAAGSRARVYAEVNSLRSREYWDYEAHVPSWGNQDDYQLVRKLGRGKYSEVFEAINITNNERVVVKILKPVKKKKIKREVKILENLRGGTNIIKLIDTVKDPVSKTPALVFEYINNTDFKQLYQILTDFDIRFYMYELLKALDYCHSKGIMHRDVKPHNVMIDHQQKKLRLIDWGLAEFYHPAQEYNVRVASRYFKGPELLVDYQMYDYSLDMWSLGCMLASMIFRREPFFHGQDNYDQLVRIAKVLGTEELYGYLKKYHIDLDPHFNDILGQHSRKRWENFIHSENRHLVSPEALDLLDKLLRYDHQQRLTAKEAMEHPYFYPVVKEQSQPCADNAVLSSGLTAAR
How it was run: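 GST-tagged full-length human CK2a2 from insect cells (1.2 nM) with 20 μM RRRDDDSDDD peptide, in pH 7.5 HEPES buffer with MgCl2, DTT and 1% DMSO. Reactions started with ³³P-ATP were run for 120 min at room temperature. Substrate phosphorylation was measured by P81 phosphocellulose filter binding and scintillation counting.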

PASK = PASK (UniProt #Q96RG2; residues 879-1323) (Homo sapiens (Human), UniProt Q96RG2); experiment: PASK ATP Radiochemical Assay; assay type: biochemical; settings: 33P-ATP radiochemical assay; read-out: IC50 Kinase Domain
PASK, sequence (Q96RG2 879-1323): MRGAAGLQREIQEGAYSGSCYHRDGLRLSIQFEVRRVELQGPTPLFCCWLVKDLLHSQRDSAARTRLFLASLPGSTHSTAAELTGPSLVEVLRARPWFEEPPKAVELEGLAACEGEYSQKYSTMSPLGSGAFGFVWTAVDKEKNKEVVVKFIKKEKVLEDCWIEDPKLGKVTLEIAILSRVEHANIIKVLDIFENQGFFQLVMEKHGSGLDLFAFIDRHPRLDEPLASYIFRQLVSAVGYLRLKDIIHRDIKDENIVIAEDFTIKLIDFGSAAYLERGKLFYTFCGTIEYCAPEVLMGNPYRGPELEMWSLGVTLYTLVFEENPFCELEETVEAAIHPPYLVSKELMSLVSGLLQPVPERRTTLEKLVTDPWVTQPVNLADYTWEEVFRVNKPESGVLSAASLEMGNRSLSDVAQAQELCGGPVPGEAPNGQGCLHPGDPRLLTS
How it was run: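 Radiometric kinase assay: GST-tagged PASK (5 nM final) from insect cells with Myelin Basic Protein (20 μM) in HEPES pH 7.5 buffer, 1% DMSO; reaction started with ^33P-ATP, 120 min at room temperature. Substrate phosphorylation captured on P81 paper and read by scintillation counting.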

hPASK (full length), sequence (Q96RG2 whole entry): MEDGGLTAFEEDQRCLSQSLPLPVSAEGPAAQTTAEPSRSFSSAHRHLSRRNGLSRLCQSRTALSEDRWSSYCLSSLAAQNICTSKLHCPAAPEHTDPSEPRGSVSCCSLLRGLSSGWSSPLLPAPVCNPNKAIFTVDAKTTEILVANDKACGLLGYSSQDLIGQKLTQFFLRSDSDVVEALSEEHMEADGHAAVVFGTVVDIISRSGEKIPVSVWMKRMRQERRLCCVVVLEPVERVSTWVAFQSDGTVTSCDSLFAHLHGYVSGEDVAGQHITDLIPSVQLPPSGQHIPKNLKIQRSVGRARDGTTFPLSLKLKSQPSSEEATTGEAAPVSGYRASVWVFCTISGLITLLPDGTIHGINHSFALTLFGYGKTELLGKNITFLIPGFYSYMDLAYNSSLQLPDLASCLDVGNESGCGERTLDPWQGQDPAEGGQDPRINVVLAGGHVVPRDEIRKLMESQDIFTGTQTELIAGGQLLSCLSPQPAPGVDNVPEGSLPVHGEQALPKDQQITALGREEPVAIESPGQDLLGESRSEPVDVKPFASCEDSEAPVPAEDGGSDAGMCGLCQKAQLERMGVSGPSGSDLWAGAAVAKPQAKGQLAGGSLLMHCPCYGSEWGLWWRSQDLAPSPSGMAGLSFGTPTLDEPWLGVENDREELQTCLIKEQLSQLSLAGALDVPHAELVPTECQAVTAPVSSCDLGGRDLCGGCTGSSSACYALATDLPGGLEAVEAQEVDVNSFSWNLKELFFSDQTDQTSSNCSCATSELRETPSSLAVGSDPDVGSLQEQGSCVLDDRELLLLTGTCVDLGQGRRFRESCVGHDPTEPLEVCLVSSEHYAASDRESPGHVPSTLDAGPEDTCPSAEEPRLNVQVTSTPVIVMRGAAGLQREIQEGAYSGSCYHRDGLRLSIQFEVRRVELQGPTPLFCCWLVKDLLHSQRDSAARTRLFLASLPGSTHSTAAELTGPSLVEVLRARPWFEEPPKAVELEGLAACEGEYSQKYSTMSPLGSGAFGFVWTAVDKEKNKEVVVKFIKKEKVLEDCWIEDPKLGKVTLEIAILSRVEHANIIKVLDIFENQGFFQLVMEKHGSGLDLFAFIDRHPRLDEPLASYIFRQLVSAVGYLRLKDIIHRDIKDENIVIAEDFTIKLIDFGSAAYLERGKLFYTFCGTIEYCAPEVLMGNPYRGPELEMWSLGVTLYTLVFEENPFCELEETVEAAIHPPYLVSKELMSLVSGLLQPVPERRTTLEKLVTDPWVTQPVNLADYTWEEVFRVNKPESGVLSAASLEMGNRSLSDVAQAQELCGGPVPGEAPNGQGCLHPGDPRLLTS

SMILES | IC50 (hPASK (full length)) [µM] | IC50 (hPASK (kinase domain)) [µM] | IC50 (CK2a2) [µM] | IC50 (PASK) [µM]
Cc1nn2c(=O)cc(-c3ccc([N+](=O)[O-])cc3)[nH]c2c1-c1ccc(Cl)cc1 [Example 1, 3-(4-Chloro-phenyl)-2-methyl-5-(4-nitro-phenyl)-4H-pyrazolo[1,5-a]pyrimidin-7-one] | ≤ 10 | ≤ 10 |  | 
Cc1cc(=O)n2nc(-c3ccc(Cl)cc3)cc2[nH]1 [Example 2, 2-(4-Chloro-phenyl)-5-methyl-4H-pyrazolo[1,5-a]pyrimidin-7-one] | ≤ 10 | ≥ 10 |  | 
Cc1[nH]c2c(-c3ccc(Cl)cc3)cnn2c(=O)c1Cc1ccccc1 [Example 3, 6-Benzyl-3-(4-chloro-phenyl)-5-methyl-4H-pyrazolo[1,5-a]pyrimidin-7-one] | ≤ 10 | ≤ 10 |  | 
COc1ccc(-c2c(Cc3ccccc3)nn3c(=O)cc(-c4ccccc4)[nH]c23)cc1 [Example 5, 2-Benzyl-3-(4-methoxy-phenyl)-5-phenyl-4H-pyrazolo[1,5-a]pyrimidin-7-one] | ≥ 10 | ≤ 10 |  | 
COc1ccc(-c2c(C)nn3c(=O)cc(-c4ccccc4)[nH]c23)cc1 [Example 6, 3-(4-Methoxy-phenyl)-2-methyl-5-phenyl-4H-pyrazolo[1,5-a]pyrimidin-7-one] | ≥ 10 | ≤ 10 |  | 
O=c1cc(-c2ccccc2)[nH]c2c(-c3ccccc3)c(Cc3ccccc3)nn12 [Example 7, 2-Benzyl-3,5-diphenyl-4H-pyrazolo[1,5-a]pyrimidin-7-one] | ≥ 10 | ≤ 10 |  | 
Cc1nn2c(=O)cc(-c3ccccc3)[nH]c2c1-c1ccc(Cl)cc1 [Example 8, 3-(4-Chloro-phenyl)-2-methyl-5-phenyl-4H-pyrazolo[1,5-a]pyrimidin-7-one] | ≤ 10 | ≤ 10 |  | 
O=c1cc(-c2ccc([N+](=O)[O-])cc2)[nH]c2c(-c3ccc(Cl)cc3)c(Cc3ccccc3)nn12 [Example 9, 2-Benzyl-3-(4-chloro-phenyl)-5-(4-nitro-phenyl)-4H-pyrazolo[1,5-a]pyrimidin-7-one] | ≤ 10 | ≤ 10 |  | 
O=c1cc(-c2ccccc2)[nH]c2c(-c3ccc(Cl)cc3)c(Cc3ccccc3)nn12 [Example 10, 2-Benzyl-3-(4-chloro-phenyl)-5-phenyl-4H-pyrazolo[1,5-a]pyrimidin-7-one] | ≥ 10 | ≥ 10 |  | 
O=c1cc(-c2ccccc2)[nH]c2c(-c3cccc4ccccc34)c(Cc3ccccc3)nn12 [Example 11, 2-Benzyl-3-naphthalen-1-yl-5-phenyl-4H-pyrazolo[1,5-a]pyrimidin-7-one] | ≥ 10 | ≥ 10 |  | 
COc1ccc(Cc2nn3c(=O)cc(-c4ccccc4)[nH]c3c2-c2ccccc2)cc1 [Example 12, 2-(4-Methoxy-benzyl)-3,5-diphenyl-4H-pyrazolo[1,5-a]pyrimidin-7-one] | ≥ 10 | ≥ 10 |  | 
Cc1nn2c(=O)c(C#N)c(-c3ccccc3)[nH]c2c1-c1ccccc1 [Example 13, 2-Methyl-7-oxo-3,5-diphenyl-4,7-dihydro-pyrazolo[1,5-a]pyrimidine-6-carbonitrile] | ≥ 10 | ≤ 10 |  | 
COc1ccc(-c2cc(=O)n3nc(C)c(-c4ccccc4)c3[nH]2)cc1 [Example 14, 5-(4-Methoxy-phenyl)-2-methyl-3-phenyl-4H-pyrazolo[1,5-a]pyrimidin-7-one] | ≤ 10 | ≤ 10 |  | 
Cc1nn2c(=O)cc(-c3ccccc3)[nH]c2c1-c1ccc(F)cc1 [Example 15, 3-(4-Fluoro-phenyl)-2-methyl-5-phenyl-4H-pyrazolo[1,5-a]pyrimidin-7-one] | ≥ 10 | ≥ 10 |  | 
COc1ccccc1-c1cc(=O)n2nc(C)c(-c3ccccc3)c2[nH]1 [Example 16, 5-(2-Methoxy-phenyl)-2-methyl-3-phenyl-4H-pyrazolo[1,5-a]pyrimidin-7-one] | ≤ 10 | ≤ 10 |  | 
Cc1nn2c(=O)cc(-c3ccc(Cl)cc3)[nH]c2c1-c1ccccc1 [Example 17, 5-(4-Chloro-phenyl)-2-methyl-3-phenyl-4H-pyrazolo[1,5-a]pyrimidin-7-one] | ≤ 10 | ≤ 10 |  | 
CCCc1cc(=O)n2nc(Cc3ccccc3)c(-c3ccc(Cl)cc3)c2[nH]1 [Example 18, 2-Benzyl-3-(4-chloro-phenyl)-5-propyl-4H-pyrazolo[1,5-a]pyrimidin-7-one] | ≥ 10 | ≥ 10 |  | 

SMILES | IC50 (hPASK (full length)) [µM] | IC50 (hPASK (kinase domain)) [µM] | IC50 (CK2a2) [µM] | IC50 (PASK) [µM]
COCc1cc(=O)n2nc(Cc3ccccc3)c(-c3ccc(OC)cc3)c2[nH]1 [Example 19, 2-Benzyl-5-methoxymethyl-3-(4-methoxy-phenyl)-4H-pyrazolo[1,5-a]pyrimidin-7-one] | ≥ 10 | ≥ 10 |  | 
O=c1cc(Cc2ccccc2)[nH]c2c(-c3ccccc3)c(Cc3ccccc3)nn12 [Example 21, 2,5-Dibenzyl-3-phenyl-4H-pyrazolo[1,5-a]pyrimidin-7-one] | ≥ 10 | ≥ 10 |  | 
CCCc1cc(=O)n2nc(C)c(-c3ccc(Cl)cc3)c2[nH]1 [Example 22, 3-(4-Chloro-phenyl)-2-methyl-5-propyl-4H-pyrazolo[1,5-a]pyrimidin-7-one] | ≥ 10 | ≥ 10 |  | 
COc1ccc(-c2c(C)nn3c(=O)cc(Cc4ccccc4)[nH]c23)cc1 [Example 23, 5-Benzyl-3-(4-methoxy-phenyl)-2-methyl-4H-pyrazolo[1,5-a]pyrimidin-7-one] | ≥ 10 | ≥ 10 |  | 
COCc1cc(=O)n2nc(Cc3ccccc3)c(-c3ccc(Cl)cc3)c2[nH]1 [Example 24, 2-Benzyl-3-(4-chloro-phenyl)-5-methoxymethyl-4H-pyrazolo[1,5-a]pyrimidin-7-one] | ≥ 10 | ≥ 10 |  | 
O=c1cc(-c2ccc3c(c2)OCCO3)[nH]c2c(-c3ccccc3)cnn12 [Example 40, 5-(2,3-Dihydrobenzo[b][1,4]dioxin-6-yl)-3-phenylpyrazolo[1,5-a]pyrimidin-7(4H)-one] |  | ≤ 10 | ≤ 10 | 
Cc1nn2c(=O)cc(-c3ccc4c(c3)OCO4)[nH]c2c1-c1ccccc1 [Example 43, 5-(Benzo[d][1,3]dioxol-5-yl)-2-methyl-3-phenylpyrazolo[1,5-a]pyrimidin-7(4H)-one] |  | ≤ 10 | ≤ 10 | 
O=c1cc(-c2ccc3c(c2)OCCO3)[nH]c2c(-c3ccccn3)cnn12 [Example 44, 5-(2,3-Dihydrobenzo[b][1,4]dioxin-6-yl)-3-(pyridin-2-yl)pyrazolo[1,5-a]pyrimidin-7(4H)-one] |  | ≤ 10 | ≤ 10 | 
O=c1cc(-c2ccc3c(c2)OCCO3)[nH]c2c(-c3cccnc3)cnn12 [Example 45, 5-(2,3-Dihydrobenzo[b][1,4]dioxin-6-yl)-3-(pyridin-3-yl)pyrazolo[1,5-a]pyrimidin-7(4H)-one] |  | ≤ 10 | ≤ 10 | 
Cc1nn2c(=O)cc(-c3ccc4c(c3)OCO4)[nH]c2c1-c1ccccn1 [Example 48, 5-(Benzo[d][1,3]dioxol-5-yl)-2-methyl-3-(pyridin-2-yl)pyrazolo[1,5-a]pyrimidin-7(4H)-one] |  | ≤ 10 | ≤ 10 | 
Cc1nn2c(=O)cc(-c3ccc4c(c3)OCO4)[nH]c2c1-c1cccnc1 [Example 49, 5-(Benzo[d][1,3]dioxol-5-yl)-2-methyl-3-(pyridin-3-yl)pyrazolo[1,5-a]pyrimidin-7(4H)-one] |  | ≤ 10 |  | 
Cc1nn2c(=O)cc(-c3ccc4c(c3)OCCO4)[nH]c2c1-c1ccccn1 [Example 50, 5-(2,3-Dihydrobenzo[b][1,4]dioxin-6-yl)-2-methyl-3-(pyridin-2-yl)pyrazolo[1,5-a]pyrimidin-7(4H)-one] |  | ≤ 10 | ≤ 10 | 
Cc1nn2c(=O)cc(-c3ccc4c(c3)OCCO4)[nH]c2c1-c1cccnc1 [Example 51, 5-(2,3-Dihydrobenzo[b][1,4]dioxin-6-yl)-2-methyl-3-(pyridin-3-yl)pyrazolo[1,5-a]pyrimidin-7(4H)-one] |  | ≤ 10 | ≤ 10 | 
O=c1cc(-c2ccccc2)[nH]c2c(-c3ccccn3)cnn12 [Example 52, 5-Phenyl-3-(pyridin-2-yl)pyrazolo[1,5-a]pyrimidin-7(4H)-one] |  | ≤ 10 |  | 
Cc1nn2c(=O)cc(-c3ccc4cc[nH]c4c3)[nH]c2c1Cc1ccccc1 [Example 74, 3-Benzyl-5-(1H-indol-6-yl)-2-methylpyrazolo[1,5-a]pyrimidin-7(4H)-one] |  | ≤ 10 | ≥ 10 | ≤ 10
O=c1cc(-c2cccnc2)[nH]c2c(-c3ccc(F)cc3)cnn12 [Example 78, 3-(4-Fluorophenyl)-5-(pyridin-3-yl)pyrazolo[1,5-a]pyrimidin-7(4H)-one] |  | ≤ 10 |  | 
